Measurements: article PMC9620171 (Journal of Medicinal Chemistry, 2022)
Like-named read-outs stand apart in the source and are kept apart here.

How the values were obtained:
[1] = test system: HSV; details: lead optimization; ref 11 and data on file; cited from earlier work
[2] = lead optimization; ref 11 and data on file; cited from earlier work
[3] = test system: HSV-1; details: oral, start 72 h postinfection; cited from earlier work
[4] = test system: HSV-2; details: day 3 to day 7 postinfection, cited from earlier work
[5] = test system: HSV-2; details: cited from earlier work; for recurrence rate per 10-day period: early treatment days 0–4, follow-up up to 85 days, control 1.0; for time to return to a disease score of zero: control 14 days
[6] = test system: acyclovir resistant, mucocutaneous HSV infection; details: preliminary data, cited from earlier work
[7] = test system: two human helicases, one nuclear and one located in the mitochondria; assay: Inhibition of human helicases; type: biochemical; details: one nuclear and one mitochondrial human helicase
[8] = Pharmacokinetics after oral administration, dog; details: in vivo, 1 mg/kg
[9] = test system: HSV; details: pritelivir-resistant, plaque-purified virus, in vitro; cited from earlier work
[10] = test system: HSV-1; details: 24 h after heat stress; two oral doses of 50 mg/kg; controls 1.4 × 10^6; cited from earlier work
[11] = test system: HSV-2; assay: Murine lethal challenge assay, intranasal HSV-2 infection; type: in vivo, mice; details: using molar doses
[12] = Pharmacokinetics after oral administration, human; details: in vivo, 100 mg
[13] = Routes of elimination of pritelivir in humans; type: in vivo; details: yields pyridinyl phenyl acetic acid and amino thiazole sulfonamide
[14] = test system: HSV-1; assay: Murine lethal challenge assay, intranasal HSV-1 infection; type: in vivo, mice; details: using molar doses
[15] = test system: HSV-2; details: 10 and 30 mg/kg twice a day, start 72 h postinfection; cited from earlier work
[16] = test system: bacterial reversion and mammalian cell chromosome aberration; assay: Genotoxicity, standard ICH battery; type: cell-based; details: in vitro; free base and mesylate monohydrate examined
[17] = test system: HSV-1; details: cited from earlier work
[18] = test system: HSV; details: four times daily swabbing; cited from earlier work
[19] = test system: HSV-1; details: cited from earlier work; for effectiveness on lesion score and virus shedding: wild-type HSV-1, postinfection day 1 to day 4
[20] = test system: HSV; details: rats; three daily oral doses, pritelivir 0.5 and 2 mg/kg, valacyclovir 45 and 135 mg/kg; cited from earlier work
[21] = test system: other herpesviruses; details: cited from earlier work
[22] = Pharmacokinetics after oral administration, rat; details: in vivo, 1 mg/kg, elimination half-life in rodents
[23] = test system: liver, heart muscle, kidney, macrophages, monocytes, T lymphocytes, fibroblasts, and neuronal cells; assay: Cytotoxicity on a panel of different cell types; type: cell-based
[24] = Physicochemical properties of pritelivir mesylate monohydrate; details: 50 for the classification system
[25] = compared with other salts and salt/hydrates; cited from earlier work
[26] = after administration of its prodrug valacyclovir in experimental animals; cited from earlier work
[27] = cited from earlier work

CNS(=O)(=O)c1sc(N(C)C(=O)Nc2ccc(-c3ccccc3)cc2)nc1C [Compound 3]
in vivo activity / efficacy [1]: superior in vivo efficacy than valacyclovir

Cc1nc(N(C)C(=O)Cc2ccc(-c3ccccc3)cc2)sc1S(N)(=O)=O [Compound 9]
in vivo activity / efficacy [1]: high in vitro and in vivo activity
solubility [2]: solubility remained a challenging issue

Cc1nc(N(C)C(=O)Cc2ccc(-n3cccn3)cc2)sc1S(N)(=O)=O [Compound 13]
solubility [2]: improved solubility

Cc1nc(N(C)C(=O)Cc2ccc(-c3c(C)noc3C)cc2)sc1S(N)(=O)=O [Compound 14]
solubility [2]: improved solubility

Cc1nc(N(C)C(=O)Cc2ccc(-c3cccnc3)cc2)sc1S(N)(=O)=O [Compound 15]
solubility [2]: less soluble

Cc1nc(N(C)C(=O)Cc2ccc(-c3ccccn3)cc2)sc1S(N)(=O)=O [Compound 16, pritelivir]
b.i.d. dose at which 3-week mortality was already decreased [3]: 0.3 mg/kg
recurrence of lesion score after treatment ([4]; oral 15 or 60 mg/kg t.i.d.): no such recurrence was observed
recurrence rate per 10-day period ([5]; 20 mg/kg b.i.d.): 0.4
recurrence rate per 10-day period ([5]; 30 mg/kg b.i.d.): 0.3
decrease of viral shedding compared to controls ([5]; day 2 postinfection, vaginal swabs, 20 mg/kg b.i.d.): 3 orders of magnitude
viral load in sacral dorsal root ganglia ([5]; days 7, 25 and 85 postinfection, vs valacyclovir and control groups): considerably lower
time to return to a disease score of zero ([5]; oral 20 mg/kg b.i.d., day 4 to day 14 postinfection): 7 days
subjects whose lesions improved but did not heal completely ([6]; of the 23 subjects treated): 4 subjects
tolerability [6]: well tolerated without significant adverse effects
inhibition of human helicases [7]: Neither of these enzymes was inhibited
half-life [8]: ≥ 22 h
frequency of resistant HSV mutants [9]: 0.5 to 4.5 × 10^–6
mean viral genome copy number in trigeminal ganglia [10]: 2.4 × 10^2
potency factor vs ganciclovir [11]: 3 fold
half-life [12]: 60 to 70 h
share of elimination by nonenzymatic hydrolysis [13]: more than 50%
potency factor vs ganciclovir [14]: 8 fold
3-week mortality [15]: no mortality
genotoxic potential [16]: nongenotoxic
EC50 ([17]; read-out: in vitro EC50, wild-type HSV-1, wild-type): 0.03 µM
higher in vitro ED50 of pritelivir-resistant HSV-1 strain ([17]; resistant strain vs wild-type): 27 fold
in vivo activity / efficacy [1]: excellent in vivo activity
efficacy vs valacyclovir in viral shedding rate and days with lesions [18]: superior efficacy vs valacyclovir
efficacy against HSV-1 mutant without wild-type mixture ([19]; mutant alone, even at 60 mg/kg): practically ineffective
outcome of high-dose extended treatment ([19]; pritelivir-resistant HSV-1 strain, 60 mg/kg for 8 days): prevented mortality and weight loss
influence on lesion score and virus shedding ([19]; pritelivir-resistant HSV-1 strain, oral 10 mg/kg, day 1 to day 4): only marginal
effectiveness on lesion score and virus shedding ([19]; oral 5 mg/kg): largely
effectiveness on lesion score and virus shedding ([19]; oral 10 mg/kg): fully
efficacy compared with valacyclovir [20]: superior efficacy
activity against other herpesviruses [21]: only weak (if any) activity
solubility [2]: much better solubility
half-life [22]: ≥ 5 h
cytotoxicity [23]: lack of cytotoxicity

CS(=O)(=O)O.Cc1nc(N(C)C(=O)Cc2ccc(-c3ccccn3)cc2)sc1S(N)(=O)=O.O [Pritelivir mesylate monohydrate]
BCS class [24]: BCS class 2
stability under forced degradation conditions [25]: highest stability

Nc1nc2c(ncn2COCCO)c(=O)[nH]1 [acyclovir]
acyclovir bioavailability [26]: 58–84%

Nc1nc2c(ncn2CCC(CO)CO)c(=O)[nH]1 [penciclovir]
half-life of penciclovir ([27]; after dosing with the prodrug famciclovir): 2.0 to 2.5 h
bioavailability ([27]; human, penciclovir via famciclovir): 60–77%

CC(C)[C@H](N)C(=O)OCCOCn1cnc2c(=O)nc(N)[nH]c21 [valacyclovir, reference compound]
mortality ([4]; oral 60 mg/kg t.i.d. (lower dose level)): 100%
recurrence rate per 10-day period ([5]; 100 mg/kg t.i.d. or 150 mg/kg b.i.d.): 0.9
time to return to a disease score of zero ([5]; 150 mg/kg b.i.d., delayed treatment): 12 days
effect on viral shedding ([5]; valacyclovir 150 mg/kg b.i.d., vaginal swabs): no discernible effect
